Measured values reported in ChEMBL document CHEMBL1201862, “PubChem BioAssay data set” (2004).
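These data come from cells grown in 96-well plates and exposed to compound for 48 hours at five concentrations. At the GI50, growth is halved.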 Active and inactive are the calls of the source. No stated cut-off is given here; in the data, active = GI50 up to about 1.1 µM and inactive = higher.

What was measured:
Test in all cases: DTP human tumour cell line panel, 48 h
MOLT-4 = system: MOLT-4
HCC 2998 = system: HCC 2998
COLO 205 = system: COLO 205
HCT-15 = system: HCT-15
HT-29 = system: HT-29
HOP-62 = system: HOP-62
MCF7 = system: MCF7
HOP-92 = system: HOP-92
ACHN = system: ACHN
MDA-MB-231 = system: MDA-MB-231
RXF 393 = system: RXF 393
OVCAR-8 = system: OVCAR-8
NCI/ADR-RES = system: NCI/ADR-RES
OVCAR-3 = system: OVCAR-3
NCI-H460 = system: NCI-H460
SR = system: SR
SNB-19 = system: SNB-19
MDA-MB-435 = system: MDA-MB-435
Malme-3M = system: Malme-3M
IGROV-1 = system: IGROV-1

Measured: GI50

CN(C)CC1CCC/C(=C\c2ccc(OC(=O)/C=C/c3ccccc3)cc2)C1=O (stereo not given)
1.56 µM: HCT-15
inactive: MOLT-4 1.3 µM | HCC 2998 10.5 µM | COLO 205 1.99 µM | HT-29 1.87 µM | HOP-62 3.48 µM | HOP-92 2.22 µM | ACHN 2.51 µM | MDA-MB-231 2.73 µM | RXF 393 1.93 µM | OVCAR-8 2 µM | NCI/ADR-RES 1.94 µM | OVCAR-3 1.97 µM | NCI-H460 4.88 µM | SNB-19 5.35 µM | MDA-MB-435 2.59 µM | Malme-3M 2.2 µM | IGROV-1 3.85 µM
active: MCF7 0.208 µM | SR 0.796 µM

Cc1ccc(NC(S)=Nc2c(C)n(C)n(-c3ccccc3)c2=O)cc1
> 100 µM: HCT-15
inactive: MOLT-4 87.9 µM | HCC 2998 > 100 µM | COLO 205 > 100 µM | HT-29 > 100 µM | HOP-62 > 100 µM | MCF7 > 100 µM | HOP-92 > 100 µM | ACHN > 100 µM | MDA-MB-231 > 100 µM | RXF 393 > 100 µM | OVCAR-8 > 100 µM | NCI/ADR-RES > 100 µM | OVCAR-3 > 100 µM | NCI-H460 > 100 µM | SR > 100 µM | SNB-19 > 100 µM | MDA-MB-435 > 100 µM | Malme-3M > 100 µM | IGROV-1 > 100 µM

CNC(=S)/C(=N\Nc1[nH]cnc1C(N)=O)C(N)=S
inactive: HCC 2998 1.99 µM | COLO 205 4.57 µM | HT-29 16.1 µM | HOP-62 19.2 µM | MCF7 16.5 µM | HOP-92 3 µM | ACHN 5.32 µM | MDA-MB-231 2.12 µM | RXF 393 > 100 µM | NCI/ADR-RES 1.36 µM | OVCAR-3 6.43 µM | NCI-H460 5.31 µM | SNB-19 45.3 µM | MDA-MB-435 7.03 µM | IGROV-1 3.56 µM
active: MOLT-4 0.711 µM | OVCAR-8 1.11 µM | SR < 0.01 µM | Malme-3M 1.1 µM
15.1 µM: HCT-15

CC1CC(NN(C)C)C2(C(N)=O)C(N)=NC(=O)C12C#N (stereo not given)
> 100 µM: HCT-15
inactive: MOLT-4 > 100 µM | HCC 2998 > 100 µM | COLO 205 > 100 µM | HT-29 > 100 µM | HOP-62 > 100 µM | MCF7 > 100 µM | HOP-92 > 100 µM | ACHN > 100 µM | MDA-MB-231 > 100 µM | RXF 393 > 100 µM | OVCAR-8 > 100 µM | NCI/ADR-RES > 100 µM | SR > 100 µM | SNB-19 > 100 µM | MDA-MB-435 > 100 µM | Malme-3M > 100 µM | IGROV-1 > 100 µM

CC1CC[C@@]2(OC1)OC1C[C@H]3[C@@H]4CCC5CC(O)CC[C@]5(C)[C@H]4C/C(=N\N(C)C)[C@]3(C)C1[C@@H]2C (stereo not given in full)
23.4 µM: HCT-15
inactive: MOLT-4 24.7 µM | HCC 2998 19.1 µM | COLO 205 19.9 µM | HT-29 19.6 µM | HOP-62 16.7 µM | MCF7 34.9 µM | HOP-92 52.8 µM | ACHN 30.3 µM | MDA-MB-231 19.2 µM | RXF 393 16.3 µM | NCI/ADR-RES 19.5 µM | OVCAR-3 17.9 µM | NCI-H460 30.5 µM | SR 13.8 µM | SNB-19 30.1 µM | MDA-MB-435 19.5 µM | Malme-3M 33.1 µM | IGROV-1 28.7 µM

CCOC(=O)C(SCCO)C(C(=O)OCC)n1cc(C)c(=O)[nH]c1=O (stereo not given)
inactive: MOLT-4 4.81 µM | HCC 2998 27.4 µM | COLO 205 10 µM | HT-29 12.9 µM | HOP-62 > 61.2 µM | MCF7 11.6 µM | HOP-92 15.6 µM | ACHN 8.75 µM | MDA-MB-231 15.9 µM | RXF 393 17 µM | OVCAR-8 14.1 µM | NCI/ADR-RES 24.8 µM | OVCAR-3 12.5 µM | NCI-H460 21.5 µM | SR 6.92 µM | SNB-19 62.1 µM | MDA-MB-435 14.3 µM | Malme-3M 15.4 µM | IGROV-1 25.4 µM
4.41 µM: HCT-15

COc1ccccc1C(O)[C@@H]1C[C@@H]2[C@H]3CC[C@@](C)([C@@H]2O1)C3(C)C (stereo not given in full)
inactive: MOLT-4 15.4 µM | HCC 2998 20.8 µM | COLO 205 19.1 µM | HT-29 19.4 µM | HOP-62 18.7 µM | MCF7 19 µM | HOP-92 15.8 µM | ACHN 19.1 µM | MDA-MB-231 17.3 µM | RXF 393 17.4 µM | OVCAR-8 18.2 µM | NCI/ADR-RES 17.5 µM | OVCAR-3 17.1 µM | NCI-H460 19.5 µM | SR 20.6 µM | SNB-19 22.8 µM | MDA-MB-435 18.5 µM | Malme-3M 15 µM | IGROV-1 15.9 µM
20.7 µM: HCT-15

CCCCOC(=O)C(=O)C(CCC(=O)c1ccc(C)cc1)C(=O)C=C(C)C (stereo not given)
> 100 µM: HCT-15
inactive: MOLT-4 > 100 µM | HCC 2998 > 100 µM | HT-29 > 100 µM | HOP-62 > 100 µM | MCF7 > 100 µM | HOP-92 > 100 µM | ACHN > 100 µM | MDA-MB-231 > 100 µM | RXF 393 > 100 µM | OVCAR-8 > 100 µM | NCI/ADR-RES > 100 µM | OVCAR-3 > 100 µM | NCI-H460 > 100 µM | SR > 100 µM | SNB-19 52.7 µM | MDA-MB-435 > 100 µM | Malme-3M > 100 µM | IGROV-1 > 100 µM

CN(C)/C=C/c1ccncc1
inactive: MOLT-4 28.7 µM | HCC 2998 > 100 µM | COLO 205 > 100 µM | HT-29 > 100 µM | HOP-62 > 100 µM | MCF7 > 100 µM | HOP-92 > 100 µM | ACHN > 100 µM | MDA-MB-231 > 100 µM | RXF 393 > 100 µM | OVCAR-8 > 100 µM | NCI/ADR-RES > 100 µM | OVCAR-3 > 100 µM | NCI-H460 > 100 µM | SR > 100 µM | SNB-19 > 100 µM | MDA-MB-435 > 100 µM | Malme-3M > 100 µM | IGROV-1 > 100 µM
> 100 µM: HCT-15

c1n[nH]cc1C12C3C4C5C3C1C5C42 (stereo not given)
> 100 µM: HCT-15
inactive: MOLT-4 > 100 µM | HCC 2998 > 100 µM | COLO 205 > 100 µM | HT-29 > 100 µM | HOP-62 > 100 µM | MCF7 > 100 µM | HOP-92 65.6 µM | ACHN > 100 µM | MDA-MB-231 > 100 µM | RXF 393 > 100 µM | OVCAR-8 > 100 µM | NCI/ADR-RES > 100 µM | OVCAR-3 > 100 µM | SR > 100 µM | SNB-19 > 100 µM | MDA-MB-435 > 100 µM | Malme-3M > 100 µM | IGROV-1 > 100 µM

CN1CCc2c3n(c4cc(Br)ccc24)[C@H](O)CCCC31 (stereo not given in full)
2.62 µM: HCT-15
inactive: MOLT-4 1.95 µM | HCC 2998 1.75 µM | COLO 205 1.78 µM | HT-29 1.81 µM | HOP-62 > 10 µM | MCF7 1.78 µM | HOP-92 3.61 µM | ACHN > 10 µM | MDA-MB-231 2.13 µM | RXF 393 2.59 µM | OVCAR-8 1.79 µM | NCI/ADR-RES 4.97 µM | OVCAR-3 > 7.5 µM | NCI-H460 1.6 µM | SR 1.93 µM | SNB-19 > 10 µM | MDA-MB-435 1.8 µM | Malme-3M 2.04 µM | IGROV-1 > 7.11 µM

CCOC(=O)c1c(-c2cccc3ccccc23)c(C#N)c(=S)n(C2OC(COC(C)=O)C(OC(C)=O)C(OC(C)=O)C2OC(C)=O)c1C (stereo not given)
inactive: MOLT-4 > 100 µM | HCC 2998 > 100 µM | COLO 205 > 100 µM | HT-29 > 100 µM | HOP-62 > 100 µM | MCF7 > 100 µM | HOP-92 > 100 µM | ACHN > 100 µM | MDA-MB-231 > 100 µM | RXF 393 > 100 µM | OVCAR-8 > 100 µM | NCI/ADR-RES > 100 µM | OVCAR-3 > 100 µM | NCI-H460 > 100 µM | SR > 100 µM | SNB-19 > 100 µM | MDA-MB-435 > 100 µM | Malme-3M > 100 µM | IGROV-1 > 100 µM
> 100 µM: HCT-15

Cc1ccc(NC(=S)NNC(=O)c2cc(-c3ccccc3)nc3ccccc23)cc1
inactive: MOLT-4 14.3 µM | HCC 2998 10.8 µM | COLO 205 16 µM | HT-29 24 µM | HOP-62 13.2 µM | MCF7 11.2 µM | HOP-92 11.8 µM | ACHN 16.3 µM | MDA-MB-231 18.5 µM | RXF 393 12.8 µM | OVCAR-8 18.3 µM | NCI/ADR-RES 14 µM | OVCAR-3 7.89 µM | NCI-H460 18.7 µM | SR 3.18 µM | SNB-19 16.7 µM | MDA-MB-435 2.81 µM | Malme-3M 6.35 µM | IGROV-1 15.2 µM
7.13 µM: HCT-15

CN(C)Cc1cc(/N=N/c2ccc(Cl)c(Cl)c2)ccc1O
inactive: MOLT-4 6.21 µM | HCC 2998 12.1 µM | COLO 205 2.84 µM | HT-29 6.53 µM | HOP-62 2.72 µM | MCF7 4.46 µM | HOP-92 3.3 µM | ACHN 4.44 µM | MDA-MB-231 5.15 µM | RXF 393 1.48 µM | OVCAR-8 12.9 µM | NCI/ADR-RES 7.46 µM | OVCAR-3 6.34 µM | NCI-H460 6.35 µM | SR 7.45 µM | SNB-19 13.6 µM | MDA-MB-435 11.7 µM | Malme-3M 15.6 µM | IGROV-1 3.4 µM
6.5 µM: HCT-15
